This is an account of results in PubChem BioAssay AID179 (DTP/NCI, 2004).

The subject of this test is CEM cells HIV-1 protection, formazan growth assay. The test can be described thus: NCI AIDS Antiviral Assay. Particulars: for IC50: measured here: growth of uninfected CEM cells. In outline: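 Category rules: moderately active means at least 50% protection on retest, and confirmed active means 100% protection reproducibly. The underlying data came from a formazan growth assay in HIV-1-infected CEM cells.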

Active and inactive are the calls of the source.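 Rule for the calls: active = compounds giving half or more protection of infected cells from virus-caused growth loss, again on retest; inactive = the rest.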

What is called EC50 is the concentration that produces a half-maximal response. As usually defined, the IC50 is the midpoint of a concentration-inhibition curve. The low end stands for higher potency, the high end for lower potency. In the case of `COc1ccc(C2c3c(-c4ccccc4)nn(-c4ccccc4)c3Oc3ncn4nc(CC#N)nc4c32)cc1OC` (configuration not stated), the EC50 is over 200 µM and the IC50 was over 200 µM. As for `O=C(ON=c1c2ccccc2ccc2ccccc12)c1cc([N+](=O)[O-])cc([N+](=O)[O-])c1`, the EC50 was over 200 µM and the IC50 was 20.4 µM. In the case of `Cc1cc(Cl)ccc1NC(=O)CCCC(=O)C1CCCC1=O` (configuration not stated), the outcome was inactive.

As to `CC(C)c1ccc(S(=O)(=O)c2ccc([N+](=O)[O-])cc2[N+](=O)[O-])cc1`, the EC50 is over 200 µM and the half-inhibitory concentration (IC50) was 0.851 µM. On to `Cn1cnc(N2CCCC2)c(C#N)c1=S`, for which the EC50 was over 200 µM and the half-maximal inhibitory concentration (IC50) is over 200 µM. Take `Cc1cccc(N2CC3CC4C=CC3(C2)O4)c1` (configuration not stated): the EC50 was over 200 µM and the concentration for half-maximal inhibition (IC50) was over 200 µM.

Consider `CN(C)CCCNC(=O)c1cc(NC(=O)c2cc(NC(=O)c3cc(N4C(=O)c5ccccc5C4=O)cn3C)cn2C)cn1C`, for which the 50% effective concentration (EC50) was over 81.3 µM and the IC50 stood at 57.5 µM. Turning to `CC(=O)n1nc(-c2[nH]c(C)c(-c3nn(C(C)=O)c(=S)o3)c2C)oc1=S`, the EC50 is over 50.1 µM and the IC50 is over 50.1 µM. Turning to `CC(C)(C)O/N=C/c1cc(NC(=S)c2ccccc2)ccc1Cl`, the EC50 is 0.135 µM and the half-inhibitory concentration (IC50) is 10.7 µM.

With `O=C(NNC(=O)c1ccccc1O)c1ccccc1O`, the EC50 was over 0.2 µM and the 50% inhibitory concentration (IC50) is 0.102 µM.

As to `CCOC(=O)C(=O)Nc1c(CC)cccc1C(C)CC` (configuration not stated), the EC50 is over 646 µM and the half-maximal inhibitory concentration (IC50) is over 646 µM. Regarding `O=C1OC(=O)C2C1C(c1ccccc1[N+](=O)[O-])C=C(c1ccco1)N2c1ccncc1` (configuration not stated), the EC50 is over 20 µM and the IC50 came out at 2.51 µM.

`CCCCC1=C(C(=O)N2CCOCC2)C2(OCCO2)C1=O`: the EC50 is over 200 µM and the IC50 was determined as 53.7 µM. Taken in the same sequence, the figures for `CO/C(=N\N=C\c1ccc(OC)cc1OC)c1ccncc1` were over 229 µM and 105 µM. Regarding `C[C@@]12C[C@@H](c3ccccc3O1)N1CCSC1=N2`, the result was inactive. For `CC(=O)Oc1c2oc3ccc(Cl)cc3c(=O)c2c(O)c2ccsc12`, the EC50 is over 200 µM and the IC50 is over 200 µM. Regarding `CN(C)CCCOCCn1c2c(c3ccccc31)CCCC2`, the EC50 is over 200 µM and the IC50 came to 32.4 µM. Consider `CC(SC(=S)Nc1cccc(F)c1)C(=O)O` (configuration not stated), for which the outcome was inactive. In the case of `Cn1c(=N)c2cnn(-c3ccccc3)c2n(C)c1=O`, the EC50 was over 490 µM and the concentration for half-maximal inhibition (IC50) was over 490 µM. `Cc1cc(C2(c3cc(C)c(O)c4ncccc34)OC(=O)c3ccccc32)c2cccnc2c1O`: the EC50 is over 2 µM and the half-maximal inhibitory concentration (IC50) worked out at 0.102 µM. Taken in the same sequence, the figures for `CCc1ccc(/C(C#N)=C/c2ccc(OC)cc2)cc1` were over 200 µM and 3.98 µM. For the molecule `COc1ccc(-n2sc3ncc(-c4ccccc4)cc3c2=O)cc1`, the EC50 was 7.08 µM and the IC50 was determined as 35.5 µM. The like results for `CC12CC[C@H](O)C(C)(C)[C@H]1CC[C@](C)(O)C2COc1ccc2ccc(=O)oc2c1` (some centres not stated) were, in that order, over 324 µM and 288 µM.

Take `CCCCC(=S)SSC(C)(C)C`: the EC50 was over 200 µM and the concentration for half-maximal inhibition (IC50) was 55 µM. `COc1ccc(/C=C/c2cc(OC)c(OC)c(OC)c2)cc1O`: the EC50 is over 10 µM and the IC50 came out at 0.145 µM. The like results for `Cc1ccc(CC(Cc2ccccc2C)C(=O)O)c(C(=O)O)c1` (configuration not stated) were, in that order, over 200 µM and over 200 µM. Taken in the same sequence, the figures for `CNNC1=NS(=O)(=O)c2cc(C)c(Cl)cc2S1` were over 200 µM and over 200 µM. The like results for `Cc1ccc(S(=O)(=O)N/N=C2/CCC(C(C)(C)C)CC2Br)cc1` (configuration not stated) were, in that order, over 200 µM and 30.9 µM.

With `CC(=O)OC1c2ccccc2CCCCCCC12OCCO2` (configuration not stated), the EC50 is over 200 µM and the IC50 amounted to 105 µM. The like results for `CCOc1nc2sc3c(c2c(=O)n1CCSSCCn1c(OCC)nc2sc4c(c2c1=O)CCCC4)CCCC3` were, in that order, over 100 µM and over 100 µM. On to `CN(C)C(=C1c2cc([N+](=O)[O-])ccc2-c2ccc([N+](=O)[O-])cc21)N(C)C`, for which the EC50 is over 200 µM and the IC50 was 10.7 µM.

As for `O=C(O)[C@@H]1CSC(C(O)C(O)C(O)CO)N1` (some centres not stated), the EC50 was over 355 µM and the half-maximal inhibitory concentration (IC50) was over 355 µM. For `CCOc1ccc(NC(=O)C2=C(C)NC(C)=C(C(=O)Nc3ccc(OCC)cc3)C2c2ccc([N+](=O)[O-])cc2)cc1`, the EC50 was over 12.9 µM and the IC50 was over 12.9 µM.

With `CN(C)CC/C(=N\Nc1c(Cl)cccc1Cl)c1ccccc1`, the result was inactive. On the same count and under the same terms, the result for `CN(C)CC/C(=N\Nc1ccc([N+](=O)[O-])cc1)c1ccccc1` reads “inactive”. As to `O=C(c1ccc([N+](=O)[O-])cc1[N+](=O)[O-])N(/N=C/C=C/c1ccccc1)c1nnc(-c2ccccc2)c(-c2ccccc2)n1`, the EC50 is over 9.12 µM and the half-maximal inhibitory concentration (IC50) is over 9.12 µM.

With `[Cl][Sn]([c]1ccccc1)([c]1ccccc1)[c]1ccccc1`, the outcome was inactive.

On to `CCc1ccc2oc(-c3cc(O)c(-c4nc5cc(CC)ccc5o4)cc3O)nc2c1`, for which the EC50 was over 200 µM and the concentration for half-maximal inhibition (IC50) is over 200 µM.

In the case of `CC(=O)NNc1nc(C)c(C(=O)/C=C/c2ccc(Cl)cc2)s1`, the EC50 was over 56.2 µM and the IC50 is over 56.2 µM. As to `CSc1cc(Cl)c(C(=O)Nc2ccccc2)cc1S(=O)(=O)n1cc[nH]c1=O`, the EC50 is over 200 µM and the 50% inhibitory concentration (IC50) is over 200 µM. On to `O=C(OCCN1CCCCC1)c1cc2ccccc2[nH]1`, for which the EC50 was over 200 µM and the IC50 was over 200 µM. For `COCCOCCOCCOc1ccc(C(C#N)N(CCc2ccccc2)C(=O)c2cc(C(=O)N(CCc3ccccc3)C(C#N)c3ccc(OCCOCCOCCOC)cc3)cc(C(=O)N(CCc3ccccc3)C(C#N)c3ccc(OCCOCCOCCOC)cc3)c2)cc1` (configuration not stated), the EC50 was over 200 µM and the IC50 was over 200 µM. For the molecule `CCC(Oc1ccc(OC)c2ccccc(=O)c12)C(=O)O` (configuration not stated), the outcome was inactive. Take `CNC(=O)c1n[nH]n(Cc2ccccc2)c1=S`: the EC50 is over 200 µM and the half-inhibitory concentration (IC50) was over 200 µM. Regarding `O=C1c2scc(-c3ccccc3)c2-n2cccc21`, the EC50 is over 200 µM and the concentration for half-maximal inhibition (IC50) is 17.8 µM. The like results for `CC(C)[Si](OC1=C(C(=O)Nc2ccccc2Cl)CCCCC1)(C(C)C)C(C)C` were, in that order, over 200 µM and 70.8 µM. As to `COc1cc([N+](=O)[O-])ccc1NC(=O)Nc1cc(C)ccn1`, the EC50 was over 200 µM and the IC50 was over 200 µM. In the case of `CC(=O)N/C=C/c1cc(O)ccc1O`, the outcome was inactive. Same read-out and setting: then `C/C=C/C(=O)[O-].C/C=C/C(=O)[O-].N.N.N.N.[Co+3].[O-][Cl+3]([O-])([O-])[O-]`, with “inactive”. For `COC(=O)C1=CO[C@@H](C)[C@H]2CN3CC[C@]4(C(=O)Nc5ccccc54)[C@@H]3C[C@H]12`, the EC50 is over 200 µM and the IC50 was over 200 µM. Consider `O=S(=O)(SC(S(=O)(=O)c1ccccc1)S(=O)(=O)c1ccccc1)c1ccccc1`, for which the EC50 was over 537 µM and the IC50 came to 355 µM.

`O=C1c2cc(Cl)ccc2-n2cnnc2C2CSCN12` (configuration not stated): the EC50 is over 200 µM and the 50% inhibitory concentration (IC50) is over 200 µM. For the molecule `O[C@H]1[C@H](O)[C@@H](O)CN2CC[C@H](O)[C@H]12`, the half-maximal effective concentration (EC50) is 204 µM and the IC50 came out at 1260 µM. For the molecule `CCOP(=O)(OCC)C(Nc1ccc(Cl)cc1)c1ccc(F)cc1` (configuration not stated), the outcome was inactive. Turning to `COC(=O)c1ncn(C(C(=O)OC)C(=O)OC)c1O`, the EC50 was over 200 µM and the IC50 was over 200 µM. On to `[CH3][Ga]([CH3])[n]1cccn1`, for which the EC50 is over 562 µM and the IC50 was determined as 74.1 µM. Taken in the same sequence, the figures for `CC=C(c1cc(Cl)c(OC)c(C(=O)OC)c1)c1cc(Cl)c(OC)c(C(=O)OC)c1` were over 2 µM and 0.0631 µM. Taken in the same sequence, the figures for `CCC(c1ccccc1)C1NC(=S)NC1=O` (configuration not stated) were over 200 µM and 138 µM. Taken in the same sequence, the figures for `COc1cc(C[C@H]2C(=O)OCC2Cc2ccc(OC)c(OC)c2)ccc1O` (some centres not stated) were over 200 µM and 5.5 µM. On to `CC(=O)OCC1OC(n2cnc3nc(Br)[nH]c(=O)c32)C(OC(C)=O)C1OC(C)=O` (configuration not stated), for which the EC50 is 61.7 µM and the IC50 is over 200 µM.

On to `COc1ccc2c(O)c(Cc3ccc(OC)c(OC)c3)c(=O)oc2c1`, for which the outcome was inactive. As for `CCOC(=O)C1(C#N)OC(=O)c2cnccc21` (configuration not stated), the EC50 is over 200 µM and the half-maximal inhibitory concentration (IC50) is over 200 µM. For `CCN(CC)C(=S)/N=C(\SC(=S)N(CC)CC)c1ccccc1`, the EC50 was over 132 µM and the IC50 stood at 52.5 µM.

With `O=C(Nc1ccc(/C=C/c2ccc(NC(=O)c3cc(S(=O)(=O)O)c4cccnc4c3O)cc2S(=O)(=O)O)c(S(=O)(=O)O)c1)c1cc(S(=O)(=O)O)c2cccnc2c1O`, the EC50 is 4.47 µM and the half-maximal inhibitory concentration (IC50) is 148 µM. The like results for `CC(C)CC[CH2][Pb]([CH2]CCC(C)C)([CH2]CCC(C)C)[O]C(=O)C(Cl)(Cl)Cl` were, in that order, over 200 µM and 3.09 µM. With `C#CCC(N)(CO)C(=O)O` (configuration not stated), the result was inactive. The same measure, in the same setting: the result for `COc1ccc(/C(C)=N/NC(N)=S)cc1OC` reads “inactive”. For the molecule `Clc1cc(Cl)nc(Nc2ccc3c(c2)CCC3)n1`, the EC50 was over 200 µM and the half-inhibitory concentration (IC50) stood at 28.2 µM. Take `CCOc1ccccc1NC(=O)C(C#N)C1=C(Cl)C(=O)c2ccccc2C1=O` (configuration not stated): the outcome was inactive. In the case of `O=C(CC(=O)N(C(=O)c1ccccc1)c1ccc(Cl)cc1)N/N=C\c1cc(N=Nc2ccccc2Cl)ccc1O`, the EC50 was over 100 µM and the IC50 is over 100 µM. Consider `COC(=O)[C@@H](Cc1ccccc1)NNC(=O)OC(C)(C)C`, for which the EC50 is over 851 µM and the half-maximal inhibitory concentration (IC50) stood at 437 µM. The like results for `Oc1ccc(Cl)cc1C(c1cc(Cl)ccc1O)C(Cl)(Cl)Cl` were, in that order, 9.77 µM and 16.6 µM. Taken in the same sequence, the figures for `C/C=N/NC1=Nc2ccc(Cl)cc2C(c2ccccc2)=NN1C` were over 200 µM and 33.9 µM.
